Laboratory results from patent US10551384B2, “MTOR kinase mutations and methods of use thereof” (RUTGERS, THE STATE UNIVERSITY OF NEW JERSEY, priority 2016, dated 2020).
“Also recorded” adds a separate entry of the source.

Assays:
TOR2-mTOR L2185A mutant = test: Yeast spotting assay for drug resistance, TOR2-mTOR L2185A; assay type: cell-based, S. cerevisiae; details: 37° C., amphotericin B present (except OSI-027)
From the text: (§1) FIGS. 4A-C. […] (FIG. 4A) Scheme of a yeast-based screen for drug-resistant mutations in mTOR kinase domain. mTOR kinase domain is amplified by error-prone PCR to generate randomized mutations, which is then recombined in frame into the TOR2-mTOR plasmid by gap-repair in tort-dg cells, and is selected on SC-leucine minus plates. Replica plating is then made onto SC-leucine plates containing DMSO or mTOR kinase inhibitor for selection of drug resistant clones. (FIG. 4B) tor2-dg cells expressing WT or mutant TOR2-mTOR were serially diluted by 10-fold and assayed for sensitivity to different mTOR kinase inhibitors in the presence of amphotericin B. Vector and TOR2 were used as controls. Drug resistant assay was performed at 37° C. in the presence of amphotericin B (except OSI-027). (FIG. 4C) Systematic mutational analysis of L2185 on drug resistance. tort-dg cells expressing WT or mutant TOR2-mTOR carrying all possible mutations at L2185 were serially diluted by 10-fold and tested for sensitivity to different mTOR kinase inhibitors at 37° C.
(§2) To enhance yeast cell permeability, log phase W303 tort-dg cells were spread evenly on SD-Leu agarose plates. After drying, small sterile filter discs were placed on the surface and 5 μl of indicated mTOR inhibitors or DMSO were applied to each disc with or without adding 5 μl of amphotericin B (10 μM), miconazole (50 μM) or caspofungin (50 μM). Plates were incubated at 37° C. for 3 day. Drug resistance profiles of TOR2-mTOR mutant cells were determined by the spotting assay. For this assay, 10-fold serial dilutions of cells were spotted on SD-leu plates in the presence of indicated mTOR inhibitors with or without amphotericin B (200 nM) and incubated at 37° C. for 3 day.

TOR2-mTOR L2185C mutant = test: Yeast spotting assay for drug resistance, TOR2-mTOR L2185C; assay type: cell-based, S. cerevisiae; details: 37° C., amphotericin B present (except OSI-027)
From the text: as §1, §2

[1] = test system: Flag-mTOR(L2185A) in HEK293T cells; test: mTOR signaling immunoblot in HEK293T cells transiently expressing Flag-mTOR(L2185A); assay type: cell-based, human; details: various concentrations, 1 hr, vs WT Flag-mTOR
Experimental: (FIG. 10A) Flag-mTOR(L2185A), when transiently expressed in HEK293T cells, confers drug resistance to mTOR kinase inhibitors. HEK293T cells transiently expressing WT and L2185A mutant Flag-mTOR were treated with various concentrations of INK-128, OSI-027 for 1 hr. The effect on the level of P-S6K, S6K, P-4E-BP1, 4EB-P1, P-AKT and AKT was analyzed by immunoblot. (FIG. 10B) Sequencing verification of genome-engineered SW480 and H460 cells carrying homozygous and heterozygous L2185A mutations in mTOR locus. (FIG. 10C) Independent clones of engineered SW480 cells confer similar drug resistance. Cells were treated with various concentrations of AZD8055 and INK-128 for 2 days. Cell growth was measured by SRB assay. Clones #1, 3 carry heterozygous L2185A mutation. Clones #2, 4 carry homozygous L2185A mutation. Data represent means±SD in three independent experiments. (FIG. 10D) SW480 cells carrying heterozygous and homozygous mTOR(L2185A) mutant alleles have similar drug resistance to mTOR kinase inhibitors. SW480 cells carrying homozygous WT and L2185A mutant mTOR alleles were treated with various concentrations of AZD8055, INK-128, OSI-027, and PP242 for 2 days. Cell growth was measured by SRB assay. […] Cell growth was measured by SRB assay. […] The effect on level of P-S6K, P-4E-BP1 and P-AKT was analyzed by immunoblot. […] The growth of H460 cells was measured by SRB assay. […]

[2] = test system: mTORC1 and mTORC2 signaling in SW480 mTOR(L2185A) cells; test: mTORC1/mTORC2 signaling immunoblot in SW480 cells carrying L2185A mutant mTOR; assay type: cell-based, human; details: various concentrations, 1 hr, immunoblot of P-S6K, P-4E-BP1, P-AKT
Experimental: (FIG. 5A) SW480 cells carrying homozygous WT mTOR or L2185A mutant alleles were treated with various concentrations of AZD8055, INK-128, OSI-027 and PP242 for 2 day. Growth of SW480 cells was measured by SRB assay. Data represent means±SD in three independent experiments. (FIG. 5B) SW480 cells carrying homozygous WT and L2185A mutant mTOR allele were treated with a single dose of AZD8055 (100 nM), INK-128 (100 nM), OSI-027 (6,000 nM), and PP242 (2,000 nM) for different times. Cell growth was measured by SRB assay. The drug carrier DMSO was used as a control. Data represent means±SD in three independent experiments. (FIG. 5C) SW480 cells carrying homozygous WT and L2185A mutant mTOR were treated with various concentrations of INK-128, OSI-027, AZD8055 and PP242 for 1 hr. The effect on the level of P-S6K, S6K, P-4E-BP1, 4EB-P1, P-AKT and AKT was analyzed by immunoblot. […] The growth of SW480 cells was measured by SRB assay. Data represent means±SD in three independent experiments.
Antibodies against tubulin, S6K, phospho-S6K (Thr389), 4E-BP1, phospho-4E-BP1 (Thr37/46), Akt, phospho-Akt (Thr308), and phospho-Akt (Ser473) were purchased from Cell Signaling Technology. […] For drug sensitivity test, cancer cells were seeded in 96-well plates at a density of 2,000 cells per well. 24 hours later, different concentrations of mTOR inhibitors were added in quadruplicate. Cell growth was measured by the sulforhodamine B (SRB) assay as previously described (Vichai, V., and Kirtikara, K. (2006). Nature protocols 1, 1112-1116).

## CC(C)n1nc(-c2ccc3oc(N)nc3c2)c2c(N)ncnc21 [INK128]
TOR2-mTOR L2185A mutant
  drug resistance/sensitivity of TOR2-mTOR L2185A mutant yeast: confer resistance; also recorded: conferring resistance
TOR2-mTOR L2185C mutant
  drug resistance/sensitivity of TOR2-mTOR L2185C mutant yeast: confer resistance; also recorded: conferring resistance
[1]
  drug resistance of mTOR signaling (P-S6K, P-4E-BP1, P-AKT) with Flag-mTOR(L2185A): confers resistance
[2]
  drug resistance of mTORC1 and mTORC2 signaling, SW480 L2185A vs WT: drug-resistant signaling by both mTORC1 and mTORC2
